This note sets out measurements from ChEMBL document CHEMBL1158574, “Trichodermaketones A-D and 7-O-methylkoninginin D from the marine fungus Trichoderma koningii” (2010).

As usually defined, the MIC is the lowest concentration that inhibits growth of the organism. Low readings indicate a more susceptible organism, high ones a less susceptible organism.

For one assay, the system named is Staphylococcus aureus. Nature of the assay: Antibacterial activity against methicillin-resistant Staphylococcus aureus clinical isolate measured after overnight incubation at 37 degC. The format is functional.
For `CCCCCC[C@H](O)[C@@H]1C[C@@H](OC)C2=C(O1)[C@H](O)CCC2=O`, the MIC was > 100 µg/mL.

Turning to `CCCCCC[C@@H]1O[C@@H]2C3=C(O[C@@H]2[C@@H]1O)[C@H](O)CCC3=O` [TRICHODERMAKETONE A], the MIC is > 100 µg/mL.

Take `CCCCCC[C@H]1O[C@H]2C3=C(O[C@H]2[C@H]1O)[C@H](O)CCC3=O` [TRICHODERMAKETONE B]: the MIC is > 100 µg/mL.

With `CCCCCC/C=C/[C@@H]1CC2=C(O1)[C@H](O)CCC2=O` [TRICHODERMAKETONE C], the MIC is > 100 µg/mL.

Turning to `CCCCCC/C=C/[C@H]1CC2=C(O1)[C@H](O)CCC2=O` [TRICHODERMAKETONE D], the MIC was > 100 µg/mL.

The test system of a further assay is Candida albicans. Put plainly: Antimicrobial activity against Candida albicans SC5314 measured after overnight incubation at 35 degC by broth microdilution assay. The format is functional. In general terms: Dilution methods test growth across graded concentrations, often in twofold steps.
In the case of `CCCCCC[C@@H]1O[C@@H]2C3=C(O[C@@H]2[C@@H]1O)[C@H](O)CCC3=O` [TRICHODERMAKETONE A], the MIC was > 125 µg/mL.
